Marks after values point to notes of the source that are not given here.
How the values were obtained:
[1] = system: Tau (AT100); experiment: Phosphorylation of Tau (AT100) in MAP-2 hippocampal neurons injured with Aβ1-42; assay type: cell-based, rat; conditions: for Area of Tau (AT100)/neurons (% of control): Aβ 1-42 (20 μM) 24 h; for concentration of maximal effect on Tau hyperphosphorylation: Aβ1-42 injured hippocampal neurons
Experimental: (§1) The hippocampal neurons were exposed with Aβ solutions (see below) after 17 days of culture. The Aβ1-42 preparation was done following the procedure described by Callizot et al. (2013) J. Neurosci. Res. 91706-716. Briefly, Aβ1-42 peptide was dissolved in the defined culture medium mentioned above, at an initial concentration of 40 μM. This solution was gently agitated for 3 days at 37° C. in the dark and immediately used after being properly diluted in culture medium to the concentrations used (20 μM (plate 1) or 2.5 μM (plate 2) corresponding to 2 μM or 0.25 μM of oligomers (AβO) respectively).
(§2) Donecopride fumarate was solved in culture medium and preincubated 1 h before Aβ application. Aβ1-42 preparation was added to a final concentration of 20 or 2.5 μM (=2 μM or 0.25 μM of AβO, evaluated by automatic Western Blot) diluted in control medium in presence of Donecopride.
(§3) 24 hours after intoxication, the hippocampal neurons were fixed by a cold solution of ethanol (95%) and acetic acid (5%) for 5 min at −20° C. After permeabilization with 0.1% of saponin, cells were incubated for 2 h with:
b) mouse monoclonal antibody anti-phospho Tau (AT100) at dilution of 1/400 in PBS containing 1% fetal calf serum and 0.1% of saponin.
For each condition, 30 pictures (representative of the whole well area) per well were taken using ImageXpress (Molecular Devices) at 20× magnification. All images were taken with the same acquisition parameters. Analyses were performed automatically by using Custom Module Editor (Molecular Devices).
The following endpoints were assessed: • Total number of neurons (neuron survival, number of MAP-2 positive neurons) • Neurite network (in μm of MAP-2 positive neurons) • area of tau in neurons (μm^2, overlapping with MAP-2 positive neurons).
(§4) Injury: The hippocampal neurons were exposed with Aβ solutions (see below) after 17 days of culture. The Aβ1-42 preparation was done following the procedure described by Callizot et al. (2013) J. Neurosci. Res. 91:706-716. The batch number of the Aβ1-42 used in this study contains 10% of oligomers (quantification by WB as performed in Combes et al. (2015) J. Neurosci. Res. 93:633-643). Briefly, Aβ1-42 peptide was dissolved in the defined culture medium mentioned above, at an initial concentration of 40 μmol/1. This solution was gently agitated for 3 days at 37° C. in the dark and immediately used after being properly diluted in culture medium to the concentrations used (20 μmol/l or 2.5 μmol/l corresponding to 2 μmol/l or 0.25 μmol/l of oligomers (AβO) respectively). Aβ1-42 preparation was added to a final concentration of 20 or 2.5 μmol/l (respectively 2 μmol/l or 0.25 μmol/l of AβO, determined by automatic WB) diluted in control medium in presence of the compounds.
Immunostaining: MAP-2/AT100—After fixation and permeabilization, cells were incubated for 2 hours with: • a chicken polyclonal antibody anti microtubule-associated-protein 2 (MAP-2) at dilution of 1/1000 in PBS containing 1% fetal calf serum and 0.1% saponin (this antibody stains specifically cell bodies and neurites, allowing study of neuronal cell death and neurite network); and • a mouse monoclonal antibody anti-phospho Tau (AT100) at dilution of 1/100 in PBS containing 1% fetal calf serum and 0.1% saponin.
For each condition, 30 pictures (representative of the whole well area) per well were taken using ImageXpress® (Molecular Devices) with 20× magnification. All images were generated using the same acquisition parameters. From images, analyses were directly and automatically performed by Custom Module Editor® (Molecular Devices). The following read-outs were investigated: • Total number of neurons (neuron survival, number of MAP-2 positive neurons) • Neurite network (in μm of MAP-2 positive neurons) • Area of AT100 (μm^2, overlapping with MAP-2 positive neurons).

[2] = system: rat primary hippocampal neurons injured with Aβ 1-42; experiment: Number of synapses (PSD95/SYN overlap) in primary hippocampal neurons injured with Aβ1-42; assay type: cell-based; conditions: for Number of synapses (% of control): Aβ 1-42 (20 μM) in Table 5, 24 h; for number of synapses normalized by the number of neurons (formation of new synapses): Aβ 1-42 injured hippocampal neurons
Experimental: as §1, §2, §3
a) mouse monoclonal antibody anti post synaptic density 95 kDa (PSD95) at a dilution of 1/100 in PBS containing 1% fetal calf serum and 0.1% of saponin.
b) Rabbit polyclonal antibody anti-synaptophysin (SYN) at the dilution of 1/100 in PBS containing 1% fetal calf serum and 0.1% of saponin.
For each condition, 40 pictures per well were taken using ImageXpress (Molecular Devices) with 40× magnification. All images were taken with the same acquisition parameters.
Synapses evaluation was performed automatically by using Custom module editor (Molecular Devices).
The following endpoints were assessed: • Total number of synapses (overlapping between PSD95/SYN).
To assess the formation of synapses, the distribution of PSD-95, a post-synaptic marker, and synaptophysin, a pre-synaptic marker, was studied. A structure positive for both PD-95 and synaptophysin staining was considered as a synapse.
as §4
Immunostaining: PSD95 and SYN—After fixation and permeabilization, cells were incubated for 2 hours with: • mouse monoclonal antibody anti post synaptic density 95 kDa (PSD95) at dilution of 1/200 in PBS containing 1% fetal calf serum and 0.1% saponin; • rabbit polyclonal antibody anti-synaptophysin (SYN) at the dilution of 1/100 in PBS containing 1% fetal calf serum and 0.1% saponin.
For each condition, 40 pictures per well were taken using ImageXpress (Molecular Devices) with 40× magnification. All images were taken with the same conditions. Synapses evaluation were performed automatically by using Custom Module Editor® (Molecular Devices). The following endpoints were assessed: • Number of synapses (overlapping between PSD95/SYN)

COc1cc(N)c(Cl)cc1C(=O)CCC1CCN(CC2CCCCC2)CC1 [Donecopride]
Area of Tau (AT100)/neurons (% of control) ([1]; 1 nM): 204 % of control
Area of Tau (AT100)/neurons (% of control) ([1]; 5 nM): 201 % of control
Area of Tau (AT100)/neurons (% of control) ([1]; 10 nM): 175 % of control
Area of Tau (AT100)/neurons (% of control) ([1]; 50 nM): 161* % of control
Area of Tau (AT100)/neurons (% of control) ([1]; 100 nM): 154* % of control
Area of Tau (AT100)/neurons (% of control) ([1]; 500 nM): 152* % of control
Area of Tau (AT100)/neurons (% of control) ([1]; 1 μM): 198 % of control
Number of synapses (% of control) ([2]; 1 nM): 69 % of control
Number of synapses (% of control) ([2]; 5 nM): 83* % of control
Number of synapses (% of control) ([2]; 10 nM): 87* % of control
Number of synapses (% of control) ([2]; 50 nM): 91* % of control
Number of synapses (% of control) ([2]; 100 nM): 93* % of control
Number of synapses (% of control) ([2]; 500 nM): 94* % of control
number of synapses normalized by the number of neurons (formation of new synapses) ([2]; 500 nM): significantly promoted the formation of new synapses
Number of synapses (% of control) ([2]; 1 μM): 85* % of control

COc1cc2c(cc1OC)C(=O)C(CC1CCN(Cc3ccccc3)CC1)C2 (stereo not drawn) [Donepezil, reference compound]
Area of Tau (AT100)/neurons (% of control) ([1]; 1 μM): 151* % of control
Number of synapses (% of control) ([2]; 1 μM): 88* % of control
number of synapses normalized by the number of neurons (formation of new synapses) ([2]; Donepezil group (1 μM)): no effect

COc1cc(N)c(F)cc1C(=O)CCC1CCN(CC2CCCCC2)CC1 [Flucopride]
concentration of maximal effect on Tau hyperphosphorylation [1]: 50 nM

COc1cc(N)c(F)cc1C(=O)CCC1CCN(CC2CCCC2)CC1 [MR33583]
concentration of maximal effect on Tau hyperphosphorylation [1]: 50 to 100 nM

COc1cc(N)c(F)cc1C(=O)CCC1CCN(CC2CCCCCC2)CC1 [MR36014]
concentration up to which the effect on synapses is significant ([2]; Aβ1-42 injured hippocampal neurons, Example 5 (FIG. 12)): ≤ 50 µM

— patent publication US20220031680A1, “Donecopride As Neuroprotective Agent In the Treatment of Neurodegenerative Diseases” (priority 2018, published 2022)
